Measurements as given in patent publication US8247211B2, “Glycopeptide antibiotics” (American Cyanamid Company, priority 2001, dated 2012).
Converted amounts (≈) assume the structure as drawn.

Experiments:
Assay in all cases: In vitro antibacterial evaluation: minimum inhibitory concentration (MIC), broth dilution method
Assay type in all cases: cell-based
[1] = system: Enterococcus sp.; details: broth dilution, 5×10^5 CFU/mL, 18 hours at 35° C.
Protocol: (§1) The minimum inhibitory concentration (MIC), the lowest concentration of the antibiotic which inhibits growth of the test organism, is determined by the broth dilution method using Muller-Hinton II […] (Baltimore Biological Laboratories) following the recommendations of the National Committee for Clinical Laboratory Standards [Methods for dilution antimicrobial susceptibility tests for bacteria that grow aerobically, approved standard M7-A2, National Committee for Clinical Laboratory Standards, Villanova, Pa].
(§2) An inoculum level of 5×10^5 CFU/mL, and a range of antibiotic concentrations (64-0.06 μg/mL) is used. […] The test organisms include a spectrum of Gram-positive bacteria comprised of Staphylococcus sp., Streptococcus sp. and Enterococcus sp. These organisms include recent clinical isolates that are resistant to methicillin, penicillin and/or vancomycin.

[2] = system: Escherichia coli; details: 5×10^5 CFU/mL, 18 hours at 35° C.
Protocol: as §1, §2

[3] = system: Staphylococcus sp.; details: for MIC Staphylococcus aureus (ATCC 29213): strain ATCC 29213; for MIC Staphylococcus aureus (GC 1131): strain GC 1131; for MIC Staphylococcus aureus (GC 4541): strain GC 4541; for MIC Staphylococcus aureus (GC 4542): strain GC 4542; for MIC Staphylococcus aureus-SMITH (GC 4543): strain GC 4543; for MIC Staphylococcus aureus (GC 4544): strain GC 4544; for MIC Staphylococcus aureus (GC 4545): strain GC 4545; for MIC Staphylococcus haemolyticus (GC 4546): strain GC 4546; for MIC Coagulase Negative Staphylococcus (GC 4547): strain GC 4547; for MIC Coagulase Negative Staphylococcus (GC 4548): strain GC 4548; for MIC Coagulase Negative Staphylococcus (GC 4549): strain GC 4549; for MIC Coagulase Negative Staphylococcus (GC 4551): strain GC 4551; for MIC Coagulase Negative Staphylococcus (ID-3941): strain ID-3941
Protocol: as §1, §2

[4] = system: Streptococcus sp.; details: broth dilution, 5×10^5 CFU/mL, 18 hours at 35° C.
Protocol: as §1, §2

[5] = broth dilution, 18 hours at 35° C.

| Structure (SMILES) | MIC Enterococccus avium (GC 4558) [1] [µg/mL] | MIC Enterococccus faecalis (ATCC 29212) [1] [µg/mL] | MIC Enterococccus faecalis (GC 4552) [1] [µg/mL] | MIC Enterococccus faecalis (GC 4553) [1] [µg/mL] | MIC Enterococccus faecalis (GC 4554) [1] [µg/mL] | MIC Enterococccus faecium (GC 2243) [1] [µg/mL] | MIC Enterococccus faecium (GC 4556) [1] [µg/mL] | MIC Enterococccus faecium (GC 4557) [1] [µg/mL] | MIC Enterococcus faecalis (GC 2242) [1] [µg/mL] | MIC Escherichia coli (ATCC 25922) [2] [µg/mL] | MIC Staphylococcus aureus (ATCC 29213) [3] [µg/mL] | MIC Staphylococcus aureus (GC 1131) [3] [µg/mL] | MIC Staphylococcus aureus (GC 4541) [3] [µg/mL] | MIC Staphylococcus aureus (GC 4542) [3] [µg/mL] | MIC Staphylococcus aureus-SMITH (GC 4543) ([3]; 18 hours at 35° C.) [µg/mL] | MIC Staphylococcus aureus-SMITH (GC 4543) [3, 5] [µg/mL] | MIC Staphylococcus aureus (GC 4544) [3] [µg/mL] | MIC Staphylococcus aureus (GC 4545) [3] [µg/mL] | MIC Staphylococcus haemolyticus (GC 4546) [3] [µg/mL] | MIC Staphylococcus haemolyticus (GC 4546) [3, 5] [µg/mL] | other results |
| --- | --- | --- | --- | --- | --- | --- | --- | --- | --- | --- | --- | --- | --- | --- | --- | --- | --- | --- | --- | --- | --- |
| N=C1NCC(C(O)C2NC(=O)C(Cc3ccc(OC4OC(CO)C(OC5OC6COC7(OC6C6OC8(OC56)C5CC6CC(C5)CC8C6)C5CC6CC(C5)CC7C6)C(O)C4O)cc3)NC(=O)C(CC3CCCCC3)NC(=O)CNC(=O)C(CO)NC(=O)C(C(O)C3CNC(=N)N3C3OC(CO)C(O)C(O)C3O)NC2=O)N1 (stereo not shown) [Example 106b] | 4 (≈ 2.58 µM) | 8 (≈ 5.16 µM) | 8 (≈ 5.16 µM) | 8 (≈ 5.16 µM) | 16 (≈ 10.3 µM) | 8 (≈ 5.16 µM) | 8 (≈ 5.16 µM) | 4 (≈ 2.58 µM) | 8 (≈ 5.16 µM) | 64 (≈ 41.2 µM) | 8 (≈ 5.16 µM) | 8 (≈ 5.16 µM) | 16 (≈ 10.3 µM) | 8 (≈ 5.16 µM) | 8 (≈ 5.16 µM) | 8 (≈ 5.16 µM) | 16 (≈ 10.3 µM) | 8 (≈ 5.16 µM) | 4 (≈ 2.58 µM) | 4 (≈ 2.58 µM) | MIC Enterococccus faecalis (GC 2691) [1]: 16 µg/mL (≈ 10.3 µM); MIC Enterococccus faecalis (GC 3059) [1]: 16 µg/mL (≈ 10.3 µM); MIC Enterococccus faecalis (GC 6189) [1]: 8 µg/mL (≈ 5.16 µM); MIC Escherichia coli (GC 4559) [2]: 32 µg/mL (≈ 20.6 µM); MIC Escherichia coli (GC 4560) [2]: 8 µg/mL (≈ 5.16 µM); MIC Staphylococcus aureus (GC 3051) ([3]; strain GC 3051): 8 µg/mL (≈ 5.16 µM); MIC Staphylococcus aureus (GC 3053) ([3]; strain GC 3053): 8 µg/mL (≈ 5.16 µM); MIC Coagulase Negative Staphylococcus (GC 4547) [3]: 8 µg/mL (≈ 5.16 µM); MIC Coagulase Negative Staphylococcus (GC 4547) [3, 5]: 8 µg/mL (≈ 5.16 µM); MIC Coagulase Negative Staphylococcus (GC 4548) [3]: 4 µg/mL (≈ 2.58 µM); MIC Coagulase Negative Staphylococcus (GC 4548) [3, 5]: 4 µg/mL (≈ 2.58 µM); MIC Coagulase Negative Staphylococcus (GC 4549) [3]: 4 µg/mL (≈ 2.58 µM); MIC Coagulase Negative Staphylococcus (GC 4549) [3, 5]: 4 µg/mL (≈ 2.58 µM); MIC Coagulase Negative Staphylococcus (GC 4551) [3]: 8 µg/mL (≈ 5.16 µM); MIC Coagulase Negative Staphylococcus (GC 4551) [3, 5]: 8 µg/mL (≈ 5.16 µM); MIC Streptococcus agalactiae (GC 4564) [4]: 0.5 µg/mL (≈ 0.322 µM); MIC Streptococcus pneumoniae (GC 1894) [4]: <0.12 µg/mL; MIC Streptococcus pneumoniae (GC 4565) [4]: 0.5 µg/mL (≈ 0.322 µM); MIC Streptococcus pneumonine (ATCC 6301) [4]: 0.5 µg/mL (≈ 0.322 µM); MIC Streptococcus pyogenes (GC 4563) [4]: 0.5 µg/mL (≈ 0.322 µM) |
| CC(C)CC1OCC2OC(OC3C(CO)OC(Oc4ccc(CC5NC(=O)C(C(C)c6ccccc6)NC(=O)CNC(=O)C(CO)NC(=O)C(C(O)C6CNC(=N)N6C6OC(CO)C(O)C(O)C6O)NC(=O)C(C(O)C6CNC(=N)N6)NC5=O)cc4)C(O)C3O)C(O)C(O)C2O1 (stereo not drawn) [Example 107, Cyclo[glycyl-β-methylphenylalanyl-O-[4-O-[4,6-O-(3-methylbutylidene)hexopyranosyl]-hexopyranosyl]tyrosyl-3-(2-iminoimidazolidin-4-yl)seryl-3-(3-hexopyranosyl-2-iminoimidazolidin-4-yl)serylseryl]] | 8 (≈ 5.87 µM) | 4 (≈ 2.93 µM) | 4 (≈ 2.93 µM) | 8 (≈ 5.87 µM) | 4 (≈ 2.93 µM) | 8 (≈ 5.87 µM) | 4 (≈ 2.93 µM) | 2 (≈ 1.47 µM) | 4 (≈ 2.93 µM) | 64 (≈ 46.9 µM) | 1 (≈ 0.733 µM) | 2 (≈ 1.47 µM) | 2 (≈ 1.47 µM) | 1 (≈ 0.733 µM) | 1 (≈ 0.733 µM) | 1 (≈ 0.733 µM) | 2 (≈ 1.47 µM) | 1 (≈ 0.733 µM) | 1 (≈ 0.733 µM) | 1 (≈ 0.733 µM) | MIC Staphylococcus aureus (ATCC 29213) [3, 5]: 1 µg/mL (≈ 0.733 µM); MIC Staphylococcus aureus (GC 1131) [3, 5]: 2 µg/mL (≈ 1.47 µM); MIC Staphylococcus aureus (GC 4541) [3, 5]: 2 µg/mL (≈ 1.47 µM); MIC Staphylococcus aureus (GC 4542) [3, 5]: 1 µg/mL (≈ 0.733 µM); MIC Staphylococcus aureus (GC 4544) [3, 5]: 2 µg/mL (≈ 1.47 µM); MIC Staphylococcus aureus (GC 4545) [3, 5]: 1 µg/mL (≈ 0.733 µM); MIC Coagulase Negative Staphylococcus (GC 4547) [3]: 1 µg/mL (≈ 0.733 µM); MIC Coagulase Negative Staphylococcus (GC 4547) [3, 5]: 1 µg/mL (≈ 0.733 µM); MIC Coagulase Negative Staphylococcus (GC 4548) [3]: 1 µg/mL (≈ 0.733 µM); MIC Coagulase Negative Staphylococcus (GC 4548) [3, 5]: 1 µg/mL (≈ 0.733 µM); MIC Coagulase Negative Staphylococcus (GC 4549) [3]: 1 µg/mL (≈ 0.733 µM); MIC Coagulase Negative Staphylococcus (GC 4549) [3, 5]: 1 µg/mL (≈ 0.733 µM); MIC Coagulase Negative Staphylococcus (GC 4551) [3]: 1 µg/mL (≈ 0.733 µM); MIC Coagulase Negative Staphylococcus (GC 4551) [3, 5]: 1 µg/mL (≈ 0.733 µM); MIC Coagulase Negative Staphylococcus (ID-3941) [3]: 1 µg/mL (≈ 0.733 µM); MIC Coagulase Negative Staphylococcus (ID-3941) [3, 5]: 1 µg/mL (≈ 0.733 µM); MIC Streptococcus agalactiae (GC 4564) [4]: 0.25 µg/mL (≈ 0.183 µM); MIC Streptococcus pneumoniae (GC 4565) [4]: <0.12 µg/mL; MIC Streptococcus pyogenes (ID-3187) [4]: 0.25 µg/mL (≈ 0.183 µM) |
| CCCCCC1OCC2OC(OC3C(CO)OC(Oc4ccc(CC5NC(=O)C(C(C)c6ccccc6)NC(=O)CNC(=O)C(CO)NC(=O)C(C(O)C6CNC(=N)N6C6OC(CO)C(O)C(O)C6O)NC(=O)C(C(O)C6CNC(=N)N6)NC5=O)cc4)C(O)C3O)C(O)C(O)C2O1 (stereo not drawn) [Example 108, Cyclo[glycyl-β-methylphenylalanyl-O-[4-O-(4,6-O-hexylidenehexonyranosyl)hexopyranosyl]-tyrosyl-3-(2-iminoimidazolidin-4-yl)seryl-3-(3-hexopyranosyl-2-iminoimidazolidin-4-yl)-serylseryl]] | 2 (≈ 1.45 µM) | 2 (≈ 1.45 µM) | 2 (≈ 1.45 µM) | 2 (≈ 1.45 µM) | 2 (≈ 1.45 µM) | 2 (≈ 1.45 µM) | 2 (≈ 1.45 µM) | 1 (≈ 0.726 µM) | 2 (≈ 1.45 µM) | 32 (≈ 23.2 µM) | 1 (≈ 0.726 µM) | 1 (≈ 0.726 µM) | 1 (≈ 0.726 µM) | 1 (≈ 0.726 µM) | 1 (≈ 0.726 µM) | 1 (≈ 0.726 µM) | 1 (≈ 0.726 µM) | 1 (≈ 0.726 µM) | 1 (≈ 0.726 µM) | 1 (≈ 0.726 µM) | MIC Staphylococcus aureus (ATCC 29213) [3, 5]: 1 µg/mL (≈ 0.726 µM); MIC Staphylococcus aureus (GC 1131) [3, 5]: 1 µg/mL (≈ 0.726 µM); MIC Staphylococcus aureus (GC 4541) [3, 5]: 1 µg/mL (≈ 0.726 µM); MIC Staphylococcus aureus (GC 4542) [3, 5]: 1 µg/mL (≈ 0.726 µM); MIC Staphylococcus aureus (GC 4544) [3, 5]: 1 µg/mL (≈ 0.726 µM); MIC Staphylococcus aureus (GC 4545) [3, 5]: 1 µg/mL (≈ 0.726 µM); MIC Coagulase Negative Staphylococcus (GC 4547) [3]: 1 µg/mL (≈ 0.726 µM); MIC Coagulase Negative Staphylococcus (GC 4547) [3, 5]: 1 µg/mL (≈ 0.726 µM); MIC Coagulase Negative Staphylococcus (GC 4548) [3]: <0.5 µg/mL; MIC Coagulase Negative Staphylococcus (GC 4548) [3, 5]: <0.5 µg/mL; MIC Coagulase Negative Staphylococcus (GC 4549) [3]: 1 µg/mL (≈ 0.726 µM); MIC Coagulase Negative Staphylococcus (GC 4549) [3, 5]: 1 µg/mL (≈ 0.726 µM); MIC Coagulase Negative Staphylococcus (GC 4551) [3]: 1 µg/mL (≈ 0.726 µM); MIC Coagulase Negative Staphylococcus (GC 4551) [3, 5]: 1 µg/mL (≈ 0.726 µM); MIC Coagulase Negative Staphylococcus (ID-3941) [3]: 1 µg/mL (≈ 0.726 µM); MIC Coagulase Negative Staphylococcus (ID-3941) [3, 5]: 1 µg/mL (≈ 0.726 µM); MIC Streptococcus agalactiae (GC 4564) [4]: <0.5 µg/mL; MIC Streptococcus pneumoniae (GC 4565) [4]: <0.5 µg/mL; MIC Streptococcus pyogenes (ID-3187) [4]: <0.5 µg/mL |
